Data reported in US20080125516A1, “Dispersible long-acting mold-proof polyurethanes or urethane adducts and mold-proof materials made thereof” (HEADWAY ADVANCED MATERIALS INC., priority 2006, published 2008).

Experiment: Solubility in solvents
Assay type: physicochemical

Measured: Solubility

COC(=O)Nc1nc2ccccc2[nH]1 [Unmodified Mold-Proof Agent, methy benzimidazol-2-ylcarbamate]
<0.3%: Dimethylformamide (DMF) | Ethyl acetate (EAC) | Methanol (ME) | Methyl-Ethyl Ketone (MEK) | N,N-dimethylacetamide (DMAC)
